Structures can show the parent of a compound that is named as a salt.

The target of the assay is T1, hCCR2b (Homo sapiens, UniProt P41597).
T1 sequence (P41597 1-360 isoform P41597-2): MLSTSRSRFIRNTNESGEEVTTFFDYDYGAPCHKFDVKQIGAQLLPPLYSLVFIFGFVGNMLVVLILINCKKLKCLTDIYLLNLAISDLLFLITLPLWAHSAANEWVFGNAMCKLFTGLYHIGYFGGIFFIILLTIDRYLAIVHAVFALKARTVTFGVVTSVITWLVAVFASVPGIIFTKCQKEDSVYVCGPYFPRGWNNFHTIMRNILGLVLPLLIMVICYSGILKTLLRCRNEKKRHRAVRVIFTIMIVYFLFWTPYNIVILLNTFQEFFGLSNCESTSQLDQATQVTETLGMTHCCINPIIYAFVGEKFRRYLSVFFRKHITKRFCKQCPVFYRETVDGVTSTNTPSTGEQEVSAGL
Put plainly: CCR2 binding assay ([125I]MCP-1, SPA, CHO cell membranes). More on the design: expressed in transfected cells; host or cells: CHO cells (membrane preparation). As to conditions: membranes from CHO cells expressing hCCR2b, 50 pM [125I]MCP-1; read-out: Binding hCCR2 (Ki). On the procedure: Membranes were prepared from CHO cells expressing mCCR2b or hCCR2b for use in ligand binding studies. Cells were suspended in 50mM Tris-HCL, pH 7.4, 2 mM EDTA, 250 mM Sucrose and 1x Complete EDTA-free protease inhibitor cocktail (Roche) (Buffer A), and disrupted at 4°C by N2 decompression using a cell disruption bomb (Parr Instrument). Following centrifugation at 200 RCF for 10 min at 4°C, the supernatant was suspended in buffer A and centrifuged again at 19000 RPM (RCSC rotor SS34 code 05 Sorvall Instruments DUPONT) for 90 min at 4°C. The pellet was then suspended in 10 mM HEPES, pH 7.4, 1 mM EDTA, 250 mM Sucrose, and 1x Complete EDTA-free protease inhibitor cocktail (Buffer B) and homogenized using a potter. Membranes were flash frozen in liquid N2 and stored at -80°C. [125I] Monocyte Chemoattractant Protein -1 (MCP-1) (25µCi; Perkin Elmer) was added to test compounds in DMSO (1% final). Membranes and WGA SPA beads (GE Healthcare) were added to give a final volume of 100 µl in 96-well plates with assay concentrations of 50 pM or 100 pM [125I]Monocyte Chemoattractant Protein -1 (respectively for hCCR2b or mCCR2b), 50 mM HEPES, pH 7.4, 5 mM MgCl2, 1 mM CaCl2, 0.1% BSA, 1-5 µg/well of membranes and 100 µg/well of WGA SPA beads. Binding was performed for 90 min at RT with strong agitation of speed 5 (Heidolph Titramax 100 SCITEC) and bound radioactivity was measured on a PerkinElmer 1450 MicroBeta counter. Specific binding was calculated by subtracting remaining radioactivity in the presence of 1000-fold excess of unlabeled compound. Binding data were analyzed using the Genedata Screener® software.

What is called Ki is a dissociation constant, usually derived from enzyme kinetics or from competition with a known ligand. Consider `CO[C@@H]1COCC[C@@H]1N1CCC2(CC1)OC(=O)C(C)=C2C(=O)N1CCc2ncc(C(F)(F)F)cc2C1` (single isomer, unassigned) [Compound 44, (-)-1,5-anhydro-2,3-dideoxy-4-O-methyl-3-(3-methyl-2-oxo-4-{[3-(trifluoromethyl)-7,8-dihydro-1,6-naphthyridin-6(5H)-yl]carbonyl}-1-oxa-8-azaspiro[4.5]dec-3-en-8-yl)-pentitol], for which the Ki was in the range of 100 to 500 nM. Under `COC1COCCC1N1CCC2(CC1)OC(=O)C(C)=C2C(=O)N1CCc2ccc(C(F)(F)F)cc2C1` (single isomer, unassigned; (+)) [Compound 41, (+)-1,5-anhydro-3,4-dideoxy-2-O-methyl-3-(3-methyl-2-oxo-4-{[7-(trifluoromethyl)-3,4-dihydroisoquinolin-2(1H)-yl]carbonyl}-1-oxa-8-azaspiro[4.5]dec-3-en-8-yl)-pentitol] stands less than 50 nM. As to `COC1COCCC1N1CCC2(CC1)OC(=O)C(C)=C2C(=O)N1CCc2ncc(C(F)(F)F)cc2C1` (single isomer, unassigned; (+)) [Compound 48, (+)-1,5-anhydro-3,4-dideoxy-2-O-methyl-3-(3-methyl-2-oxo-4-{[3-(trifluoromethyl)-7,8-dihydro-1,6-naphthyridin-6(5H)-yl]carbonyl}-1-oxa-8-azaspiro[4.5]dec-3-en-8-yl)-pentitol], the Ki fell in the range of 100 to 500 nM. The figure for `COC1COCCC1N1CCC2(CC1)OC(=O)C(C)=C2C(=O)N1CCc2ccc(C(F)(F)F)cc2C1` (single isomer, unassigned; (-)) [Compound 40, (-)-1,5-anhydro-2,3-dideoxy-4-O-methyl-3-(3-methyl-2-oxo-4-{[7-(trifluoromethyl)-3,4-dihydroisoquinolin-2(1H)-yl]carbonyl}-1-oxa-8-azaspiro[4.5]dec-3-en-8-yl) -pentitol] is less than 50 nM.

On to `COC(CN1CCC2(CC1)OC(=O)C(C)=C2C(=O)N1CCN(c2cccc(C(F)(F)F)c2)CC1)c1ccccc1` (stereo not shown) [Compound 7, 8-(2-methoxy-2-phenylethyl)-3-methyl-4-({4-[3-(trifluoromethyl)phenyl]piperazin-1-yl}carbonyl)-1-oxa-8-azaspiro[4.5]dec-3-en-2-one], for which the Ki was 50 to 100 nM.

In the case of `COc1cccc(CCN2CCC3(CC2)OC(=O)C(C)=C3C(=O)N2CCN(c3cccc(C(F)(F)F)c3)CC2)c1` [Compound 8, 8-[2-(3-methoxyphenyl)ethyl]-3-methyl-4-({4-[3-(trifluoromethyl)pheny)]piperazin-1-yl}carbonyl)-1-oxa-8-azaspiro[4.5]dec-3-en-2-one, dihydrochloride salt], the inhibitory constant (Ki) was less than 50 nM. The figure for `CC1=C(C(=O)N2CCN(c3cccc(C(F)(F)F)c3)CC2)C2(CCN(CC(=O)O)CC2)OC1=O` [Compound 9, [3-methyl-2-oxo-4-({4-[3-(trifluoromethyl)phenyl]piperazin-1-yl}carbonyl)-1-oxa-8-azaspiro[4.5]dec-3-en-8-yl]acetic acid] is 100 to 500 nM; for `CC1=C(C(=O)N2CCN(c3cccc(C(F)(F)F)c3)CC2)C2(CCN(CCC(=O)O)CC2)OC1=O` [Compound 10, 3-[3-methyl-2-oxo-4-({4-[3-(trifluoromethyl)phenyl]piperazin-1-yl}carbonyl)-1-oxa-8-azaspiro[4.5]dec-3-en-8-yl]propanoic acid] it is 100 to 500 nM; for `CC1=C(C(=O)N2CCN(c3cccc(C(F)(F)F)c3)CC2)C2(CCN(CCCC(=O)O)CC2)OC1=O` [Compound 11, 4-[3-methyl-2-oxo-4-({4-[3-(trifluoromethyl)phenyl]piperazin-1-yl}carbonyl)-1-oxa-8-azaspiro[4.5]dec-3-en-8-yl]butanoic acid] it is 100 to 500 nM.

Consider `CC1=C(C(=O)N2CCN(c3cccc(C(F)(F)F)c3)CC2)C2(CCN(CCc3ccncc3)CC2)OC1=O` [Compound 12, 3-methyl-8-(2-pyridin-4-ylethyl)-4-({4-[3-(trifluoromethyl)phenyl]piperazin-1-yl}carbonyl)-1-oxa-8-azaspiro[4.5]dec-3-en-2-one], for which the Ki lay within 50 to 100 nM.

These data come from patent EP2508526A1, “Spiroalkene carboxamide derivatives and their use as chemokine receptor modulators” (Ares Trading SA, priority 2011, dated 2012).
